Key:
Mouse TNF-α = assay: LPS induced TNF-α production, in vivo rodent assay (oral dosing, serum ELISA); conditions: LPS 1 mg/kg i.p. 30 min after dosing, serum 1 h later; for inhibition at 10 mg/kg: oral 10 mg/kg; for inhibition at 25 mg/kg: oral 25 mg/kg
Description: Mice (BALB/cJ females, Jackson Laboratories) or rats (Lewis males, Charles River) were fasted for 30 min prior to oral dosing with 5–10 mL/kg of test compound at 5–50 mg/kg. Thirty minutes after dosing, the animals were injected intraperitoneally with LPS at 1 mg/kg and returned to their cages for 1 h. Animals were anesthetized by CO2, exsanguinated by cardiac puncture and whole blood collected (0.1–0.7 mL). The blood was allowed to clot and serum was transferred to a centrifuge tube. This sample was centrifuged, serum was collected, aliquoted and frozen at −80 C. Samples were tested by commercial ELISAs for TNF-α (Endogen for mouse TNF-α and Biosource for rat TNF-α), resulting in data as shown in Table A.

TNF-α = assay: LPS-induced TNF-α production in human PBMC, in vitro whole cell assay (ELISA); assay type: cell-based; conditions: LPS stimulation overnight, TNF-α by ELISA
Description: Compounds of the invention were measured for their ability to inhibit the activity of p38 in an in vitro whole cell assay using peripheral blood mononuclear cells (“PBMC” ) obtained from human blood as follows. Freshly obtained venous blood was anticoagulated with heparin, diluted with an equal volume of phosphate buffered saline (“PBS” ) and placed in a sterile tube or other container. Aliquots (30 mL) of this mixture were transferred to centrifuge tubes which were underlaid with Ficoll-Hypaque (15 mL). The prepared tubes were centrifuged at 400×g without braking for 30 min at room temperature. Approximately ½ to ⅔ of the platelet layer above the mononuclear cell band was removed with a pipet. The majority of the mononuclear cell layer was carefully removed using a pipet and these PBMCs were diluted with PBS and spun at 600×g for 15 min. The resulting PBMCs were washed with another portion of PBS and spun at 400×g for 10 min at room temperature. The recovered pellets were diluted in low endotoxin RPMI/1% FCS culture medium and gave a cell concentration of 0.5–2.0×10^6 PMBC/mL. A small volume of the suspension was removed for counting on a hemocytometer and the remaining preparation was centrifuged at 200×g for 15 min at room temperature. The recovered pelleted PMBC were resuspended in RPMI/1% FCS to a concentration of 1.67×10^6/mL. […]

`CCN1CCC/C1=C\c1nc(-c2ccc(F)cc2)c(-c2ccncc2)n1CCCc1ccccc1` [Compound 2, 4-[4-(4-fluorophenyl)-2-[(E)-(1-ethyl-2-pyrrolidinylidene)methyl]-1-(3-phenylpropyl)-1H-imidazol-5-yl]-pyridine] gave a melting point of 126.6 to 127.6 °C, an inhibition at 10 mg/kg (Mouse TNF-α) of 89% and an inhibition at 25 mg/kg (Mouse TNF-α) of 98%. The IC50 (TNF-α) was 17 nM.
Work on `CN1CCC/C1=C\c1nc(-c2ccc(F)cc2)c(-c2ccncc2)n1CCCc1ccccc1` [Compound 1, 4-[4-(4-fluorophenyl)-2-[(E)-(1-methyl-2-pyrrolidinylidene)methyl]-1-(3-phenylpropyl)-1H-imidazol-5-yl]-pyridine] yielded a melting point of 171 to 172 °C, an inhibition at 10 mg/kg (Mouse TNF-α) of 77% and an inhibition at 25 mg/kg (Mouse TNF-α) of 99%. It also gave an IC50 (TNF-α) of 15 nM.
